Assay results: US8192962B2, “Processes for detecting toxic substances” (Daikin Industries, Ltd., priority 2001, dated 2012)

Tested on: Metabolism protein genes
Test: DNA chip mRNA expression in yeast, metabolism protein genes (Table 7)
Assay type: cell-based, Saccharomyces cerevisiae S288C
How it was run: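 Measured as treated-to-untreated fluorescence ratio on a full-genome yeast DNA chip. Cells (S288C, YPD, 25° C.) were exposed in log phase for two hours to one chemical, dosed to curb growth without killing.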

Compound: O=[N+]([O-])c1cc[n+]([O-])c2ccccc12 [(5), 4-nitroquinolin-N-oxide]
- The level of expressed mRNA in the presence of chemical substance/The level of expressed mRNA in the absence of chemical substance (yeast gene YJR148W): 0.6
- The level of expressed mRNA in the presence of chemical substance/The level of expressed mRNA in the absence of chemical substance (yeast gene YJR155W): 0.7
- The level of expressed mRNA in the presence of chemical substance/The level of expressed mRNA in the absence of chemical substance (yeast gene YKL035W): 0.8
- level of expressed mRNA in the presence/in the absence of chemical substance (yeast gene YKL060C): 1.6
- The level of expressed mRNA in the presence of chemical substance/The level of expressed mRNA in the absence of chemical substance (yeast gene YKL091C): 1.0
- The level of expressed mRNA in the presence of chemical substance/The level of expressed mRNA in the absence of chemical substance (yeast gene YKL104C): 1.4
- level of expressed mRNA in the presence/in the absence of chemical substance (yeast gene YKL148C): 0.8
- The level of expressed mRNA in the presence of chemical substance/The level of expressed mRNA in the absence of chemical substance (yeast gene YKL152C): 1.3
- level of expressed mRNA in the presence/in the absence of chemical substance (yeast gene YKL157W): 1.5
- The level of expressed mRNA in the presence of chemical substance/The level of expressed mRNA in the absence of chemical substance (yeast gene YKL213C): 0.7
- The level of expressed mRNA in the presence of chemical substance/The level of expressed mRNA in the absence of chemical substance (yeast gene YKL215C): 1.0
- level of expressed mRNA in the presence/in the absence of chemical substance (yeast gene YKR034W): 0.9
- The level of expressed mRNA in the presence of chemical substance/The level of expressed mRNA in the absence of chemical substance (yeast gene YKR039W): 1.0
- The level of expressed mRNA in the presence of chemical substance/The level of expressed mRNA in the absence of chemical substance (yeast gene YLL058W): 0.8
- level of expressed mRNA in the presence/in the absence of chemical substance (yeast gene YLR006C): 1.6
- level of expressed mRNA in the presence/in the absence of chemical substance (yeast gene YLR044C): 1.7
- level of expressed mRNA in the presence/in the absence of chemical substance (yeast gene YLR056W): 1.6
- level of expressed mRNA in the presence/in the absence of chemical substance (yeast gene YLR058C): 0.7
- level of expressed mRNA in the presence/in the absence of chemical substance (yeast gene YLR081W): 1.0
- level of expressed mRNA in the presence/in the absence of chemical substance (yeast gene YLR089C): 0.8
- The level of expressed mRNA in the presence of chemical substance/The level of expressed mRNA in the absence of chemical substance (yeast gene YLR180W): 0.8
- level of expressed mRNA in the presence/in the absence of chemical substance (yeast gene YLR284C): 1.6
- The level of expressed mRNA in the presence of chemical substance/The level of expressed mRNA in the absence of chemical substance (yeast gene YLR299W): 0.6
- The level of expressed mRNA in the presence of chemical substance/The level of expressed mRNA in the absence of chemical substance (yeast gene YLR300W): 0.8
- level of expressed mRNA in the presence/in the absence of chemical substance (yeast gene YLR304C): 0.6
- The level of expressed mRNA in the presence of chemical substance/The level of expressed mRNA in the absence of chemical substance (yeast gene YLR307W): 1.4
- The level of expressed mRNA in the presence of chemical substance/The level of expressed mRNA in the absence of chemical substance (yeast gene YLR348C): 0.9
- level of expressed mRNA in the presence/in the absence of chemical substance (yeast gene YLR354C): 1.6
- level of expressed mRNA in the presence/in the absence of chemical substance (yeast gene YLR372W): 1.4
- level of expressed mRNA in the presence/in the absence of chemical substance (yeast gene YML022W): 1.3
- The level of expressed mRNA in the presence of chemical substance/The level of expressed mRNA in the absence of chemical substance (yeast gene YML054C): 1.3
- The level of expressed mRNA in the presence of chemical substance/The level of expressed mRNA in the absence of chemical substance (yeast gene YML070W): 1.4
- The level of expressed mRNA in the presence of chemical substance/The level of expressed mRNA in the absence of chemical substance (yeast gene YML100W): 0.9
- The level of expressed mRNA in the presence of chemical substance/The level of expressed mRNA in the absence of chemical substance (yeast gene YMR008C): 1.1
- level of expressed mRNA in the presence/in the absence of chemical substance (yeast gene YMR011W): 0.9
- level of expressed mRNA in the presence/in the absence of chemical substance (yeast gene YMR015C): 1.7
- The level of expressed mRNA in the presence of chemical substance/The level of expressed mRNA in the absence of chemical substance (yeast gene YMR020W): 1.4
- level of expressed mRNA in the presence/in the absence of chemical substance (yeast gene YMR083W): 1.5
- The level of expressed mRNA in the presence of chemical substance/The level of expressed mRNA in the absence of chemical substance (yeast gene YMR105C): 0.9
- The level of expressed mRNA in the presence of chemical substance/The level of expressed mRNA in the absence of chemical substance (yeast gene YMR189W): 0.4
- level of expressed mRNA in the presence/in the absence of chemical substance (yeast gene YMR205C): 1.2
- level of expressed mRNA in the presence/in the absence of chemical substance (yeast gene YMR261C): 0.9
- The level of expressed mRNA in the presence of chemical substance/The level of expressed mRNA in the absence of chemical substance (yeast gene YMR271C): 1.1
- The level of expressed mRNA in the presence of chemical substance/The level of expressed mRNA in the absence of chemical substance (yeast gene YMR296C): 0.4
- level of expressed mRNA in the presence/in the absence of chemical substance (yeast gene YMR323W): 0.7
- The level of expressed mRNA in the presence of chemical substance/The level of expressed mRNA in the absence of chemical substance (yeast gene YNL012W): 1.3
- level of expressed mRNA in the presence/in the absence of chemical substance (yeast gene YNL025C): 0.7
- The level of expressed mRNA in the presence of chemical substance/The level of expressed mRNA in the absence of chemical substance (yeast gene YNL037C): 1.7
- The level of expressed mRNA in the presence of chemical substance/The level of expressed mRNA in the absence of chemical substance (yeast gene YNL045W): 1.1
- The level of expressed mRNA in the presence of chemical substance/The level of expressed mRNA in the absence of chemical substance (yeast gene YNL104C): 0.8
- The level of expressed mRNA in the presence of chemical substance/The level of expressed mRNA in the absence of chemical substance (yeast gene YNL106C): 0.8
- The level of expressed mRNA in the presence of chemical substance/The level of expressed mRNA in the absence of chemical substance (yeast gene YNL169C): 0.7
- level of expressed mRNA in the presence/in the absence of chemical substance (yeast gene YNL192W): 0.9
- The level of expressed mRNA in the presence of chemical substance/The level of expressed mRNA in the absence of chemical substance (yeast gene YNL231C): 2.1
- The level of expressed mRNA in the presence of chemical substance/The level of expressed mRNA in the absence of chemical substance (yeast gene YNL322C): 1.4
- The level of expressed mRNA in the presence of chemical substance/The level of expressed mRNA in the absence of chemical substance (yeast gene YNL331C): 1.6
- The level of expressed mRNA in the presence of chemical substance/The level of expressed mRNA in the absence of chemical substance (yeast gene YNL332W): 1.6
- The level of expressed mRNA in the presence of chemical substance/The level of expressed mRNA in the absence of chemical substance (yeast gene YNR002C): 1.2
- The level of expressed mRNA in the presence of chemical substance/The level of expressed mRNA in the absence of chemical substance (yeast gene YNR019W): 0.8
- The level of expressed mRNA in the presence of chemical substance/The level of expressed mRNA in the absence of chemical substance (yeast gene YNR033W): 1.3
- The level of expressed mRNA in the presence of chemical substance/The level of expressed mRNA in the absence of chemical substance (yeast gene YNR059W): 1.4
- The level of expressed mRNA in the presence of chemical substance/The level of expressed mRNA in the absence of chemical substance (yeast gene YOL058W): 1.2
- level of expressed mRNA in the presence/in the absence of chemical substance (yeast gene YOL086C): 1.9
- level of expressed mRNA in the presence/in the absence of chemical substance (yeast gene YOL108C): 2.1
- level of expressed mRNA in the presence/in the absence of chemical substance (yeast gene YOL116W): 1.7
- The level of expressed mRNA in the presence of chemical substance/The level of expressed mRNA in the absence of chemical substance (yeast gene YOL126C): 0.7
- The level of expressed mRNA in the presence of chemical substance/The level of expressed mRNA in the absence of chemical substance (yeast gene YOL153C): 1.2
- level of expressed mRNA in the presence/in the absence of chemical substance (yeast gene YOL156W): 1.2
- The level of expressed mRNA in the presence of chemical substance/The level of expressed mRNA in the absence of chemical substance (yeast gene YOL165C): 0.9
- level of expressed mRNA in the presence/in the absence of chemical substance (yeast gene YOR002W): 1.1
- level of expressed mRNA in the presence/in the absence of chemical substance (yeast gene YOR085W): 1.0
- The level of expressed mRNA in the presence of chemical substance/The level of expressed mRNA in the absence of chemical substance (yeast gene YOR099W): 1.5
- level of expressed mRNA in the presence/in the absence of chemical substance (yeast gene YOR103C): 1.5
- level of expressed mRNA in the presence/in the absence of chemical substance (yeast gene YOR108W): 1.1
- level of expressed mRNA in the presence/in the absence of chemical substance (yeast gene YOR128C): 1.1
- The level of expressed mRNA in the presence of chemical substance/The level of expressed mRNA in the absence of chemical substance (yeast gene YOR130C): 1.8
- level of expressed mRNA in the presence/in the absence of chemical substance (yeast gene YOR142W): 1.4
- level of expressed mRNA in the presence/in the absence of chemical substance (yeast gene YOR176W): 1.0
- level of expressed mRNA in the presence/in the absence of chemical substance (yeast gene YOR178C): 1.0
- level of expressed mRNA in the presence/in the absence of chemical substance (yeast gene YOR251C): 0.8
- The level of expressed mRNA in the presence of chemical substance/The level of expressed mRNA in the absence of chemical substance (yeast gene YOR336W): 1.3
- The level of expressed mRNA in the presence of chemical substance/The level of expressed mRNA in the absence of chemical substance (yeast gene YOR347C): 0.7
- level of expressed mRNA in the presence/in the absence of chemical substance (yeast gene YOR348C): 0.9
- The level of expressed mRNA in the presence of chemical substance/The level of expressed mRNA in the absence of chemical substance (yeast gene YPL017C): 1.3
- level of expressed mRNA in the presence/in the absence of chemical substance (yeast gene YPL028W): 1.0
- level of expressed mRNA in the presence/in the absence of chemical substance (yeast gene YPL057C): 1.9
- level of expressed mRNA in the presence/in the absence of chemical substance (yeast gene YPL135W): 1.6
- level of expressed mRNA in the presence/in the absence of chemical substance (yeast gene YPL148C): 1.1
- The level of expressed mRNA in the presence of chemical substance/The level of expressed mRNA in the absence of chemical substance (yeast gene YPR026W): 0.8
- level of expressed mRNA in the presence/in the absence of chemical substance (yeast gene YPR113W): 2.0
- level of expressed mRNA in the presence/in the absence of chemical substance (yeast gene YPR165W): 1.5
- The level of expressed mRNA in the presence of chemical substance/The level of expressed mRNA in the absence of chemical substance (yeast gene YPR167C): 1.4
- level of expressed mRNA in the presence/in the absence of chemical substance (yeast gene YPR183W): 0.9
